According to ChEMBL document CHEMBL1201862, “PubChem BioAssay data set” (2004):
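Compound exposure: 48 hours, 5 concentrations, 96-well plates. The concentration for 50% growth inhibition is given as GI50.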 Calls of active or inactive are those of the source. Cut-off read from the data, not from the text of the source: active = GI50 up to about 1.1 µM and inactive = higher.

Legend:
Test in all cases: inhibition of tumour cell growth, NCI panel, 48 h
U-251 = system: U-251
UO-31 = system: UO-31
SR = system: SR
SK-OV-3 = system: SK-OV-3
LOX IMVI = system: LOX IMVI
KM12 = system: KM12
UACC-62 = system: UACC-62
RXF 393 = system: RXF 393
MDA-MB-231 = system: MDA-MB-231
HT-29 = system: HT-29
SK-MEL-2 = system: SK-MEL-2
SW-620 = system: SW-620
EKVX = system: EKVX
SK-MEL-28 = system: SK-MEL-28
MDA-MB-435 = system: MDA-MB-435
HCT-15 = system: HCT-15
MOLT-4 = system: MOLT-4
786-0 = system: 786-0
HL-60 = system: HL-60
HCC 2998 = system: HCC 2998

Structure (SMILES)	GI50 (U-251)	GI50 (UO-31)	GI50 (SR)	GI50 (SK-OV-3)	GI50 (LOX IMVI)	GI50 (KM12)	GI50 (UACC-62)	GI50 (RXF 393)	GI50 (MDA-MB-231)	GI50 (HT-29)	GI50 (SK-MEL-2)	GI50 (SW-620)	GI50 (EKVX)	GI50 (SK-MEL-28)	GI50 (MDA-MB-435)	GI50 (HCT-15) [µM]	GI50 (MOLT-4)	GI50 (786-0)	GI50 (HL-60)	GI50 (HCC 2998)
Oc1c(Br)cc(Br)cc1CN(Cc1cc(Br)cc(Br)c1O)C1CCCCC1	24.9 µM (inactive)	31.7 µM (inactive)	32.4 µM (inactive)	44.6 µM (inactive)	31.9 µM (inactive)	31.9 µM (inactive)	31.3 µM (inactive)	31.3 µM (inactive)	26.4 µM (inactive)	23.7 µM (inactive)	20.2 µM (inactive)	29.7 µM (inactive)	30.5 µM (inactive)	48.1 µM (inactive)	31.3 µM (inactive)	31.9	43.4 µM (inactive)	41.1 µM (inactive)	–	–
O=C(O)c1cc(-c2ccc(-c3ccccc3)cc2)nc2cc3ccccc3cc12	20.7 µM (inactive)	61.9 µM (inactive)	5.43 µM (inactive)	> 100 µM (inactive)	66.7 µM (inactive)	34.3 µM (inactive)	25.5 µM (inactive)	27.7 µM (inactive)	21.2 µM (inactive)	38 µM (inactive)	82 µM (inactive)	40.4 µM (inactive)	57.1 µM (inactive)	87.5 µM (inactive)	72.9 µM (inactive)	8.15	11.6 µM (inactive)	25.9 µM (inactive)	19.1 µM (inactive)	–
COc1nc2ccc(CNc3ccc(C(=O)O)cc3)cc2nc1OC	> 10 µM (inactive)	–	–	> 10 µM (inactive)	> 10 µM (inactive)	> 10 µM (inactive)	> 10 µM (inactive)	> 10 µM (inactive)	> 10 µM (inactive)	> 10 µM (inactive)	> 10 µM (inactive)	> 10 µM (inactive)	> 10 µM (inactive)	> 10 µM (inactive)	> 10 µM (inactive)	> 10	> 10 µM (inactive)	> 10 µM (inactive)	> 10 µM (inactive)	> 10 µM (inactive)
[N-]=[N+]=Nc1c(Cl)c(=O)n(-c2ccccc2)c2ccccc12	> 10 µM (inactive)	23.9 µM (inactive)	31.4 µM (inactive)	37.2 µM (inactive)	14.9 µM (inactive)	39.5 µM (inactive)	15.1 µM (inactive)	16.4 µM (inactive)	–	23.2 µM (inactive)	20.7 µM (inactive)	14.6 µM (inactive)	–	17.6 µM (inactive)	19.1 µM (inactive)	20.7	8.43 µM (inactive)	18.3 µM (inactive)	40.3 µM (inactive)	21.7 µM (inactive)
CC(C)C1CN1CC(O)Cn1ccnc1[N+](=O)[O-] (centres undefined)	> 100 µM (inactive)	> 100 µM (inactive)	–	> 100 µM (inactive)	–	> 100 µM (inactive)	> 100 µM (inactive)	–	> 100 µM (inactive)	> 100 µM (inactive)	> 100 µM (inactive)	> 100 µM (inactive)	> 100 µM (inactive)	> 100 µM (inactive)	–	> 100	> 100 µM (inactive)	> 100 µM (inactive)	> 10 µM (inactive)	> 100 µM (inactive)
CCOC(=O)c1nc[nH]c1/N=N/N(C)N	65 µM (inactive)	> 100 µM (inactive)	–	> 100 µM (inactive)	92.5 µM (inactive)	1.87 µM (inactive)	> 100 µM (inactive)	> 100 µM (inactive)	> 100 µM (inactive)	61.1 µM (inactive)	> 100 µM (inactive)	> 100 µM (inactive)	> 100 µM (inactive)	> 100 µM (inactive)	> 100 µM (inactive)	91.4	44.2 µM (inactive)	84.7 µM (inactive)	29.2 µM (inactive)	> 100 µM (inactive)
CCN(CCCN(CC)C(=O)Nc1c(C)cccc1C)C(=O)Nc1c(C)cccc1C	> 100 µM (inactive)	92.3 µM (inactive)	–	> 100 µM (inactive)	> 100 µM (inactive)	> 100 µM (inactive)	> 100 µM (inactive)	43.1 µM (inactive)	> 100 µM (inactive)	> 100 µM (inactive)	> 100 µM (inactive)	> 100 µM (inactive)	> 100 µM (inactive)	> 100 µM (inactive)	> 100 µM (inactive)	> 100	> 100 µM (inactive)	> 100 µM (inactive)	–	> 100 µM (inactive)
Clc1ccc(Cl)c(Nc2ccnc(SCc3ccccc3)n2)c1	> 100 µM (inactive)	> 100 µM (inactive)	> 100 µM (inactive)	> 100 µM (inactive)	46.6 µM (inactive)	> 100 µM (inactive)	> 100 µM (inactive)	20.4 µM (inactive)	> 100 µM (inactive)	69.8 µM (inactive)	> 100 µM (inactive)	> 100 µM (inactive)	57.9 µM (inactive)	> 100 µM (inactive)	> 100 µM (inactive)	> 100	> 100 µM (inactive)	> 100 µM (inactive)	–	–
